Reference: US12304904B2, “Bicyclic [4,6,0] hydroxamic acids as HDAC inhibitors” (Valo Health, Inc., priority 2015, dated 2025)

Target: T1, HDAC6 (Homo sapiens, UniProt Q9UBN7)
T1 construct: Full length human recombinant HDAC6 protein were expressed in baculoviral system; made in house
T1 sequence (Q9UBN7 1-1215): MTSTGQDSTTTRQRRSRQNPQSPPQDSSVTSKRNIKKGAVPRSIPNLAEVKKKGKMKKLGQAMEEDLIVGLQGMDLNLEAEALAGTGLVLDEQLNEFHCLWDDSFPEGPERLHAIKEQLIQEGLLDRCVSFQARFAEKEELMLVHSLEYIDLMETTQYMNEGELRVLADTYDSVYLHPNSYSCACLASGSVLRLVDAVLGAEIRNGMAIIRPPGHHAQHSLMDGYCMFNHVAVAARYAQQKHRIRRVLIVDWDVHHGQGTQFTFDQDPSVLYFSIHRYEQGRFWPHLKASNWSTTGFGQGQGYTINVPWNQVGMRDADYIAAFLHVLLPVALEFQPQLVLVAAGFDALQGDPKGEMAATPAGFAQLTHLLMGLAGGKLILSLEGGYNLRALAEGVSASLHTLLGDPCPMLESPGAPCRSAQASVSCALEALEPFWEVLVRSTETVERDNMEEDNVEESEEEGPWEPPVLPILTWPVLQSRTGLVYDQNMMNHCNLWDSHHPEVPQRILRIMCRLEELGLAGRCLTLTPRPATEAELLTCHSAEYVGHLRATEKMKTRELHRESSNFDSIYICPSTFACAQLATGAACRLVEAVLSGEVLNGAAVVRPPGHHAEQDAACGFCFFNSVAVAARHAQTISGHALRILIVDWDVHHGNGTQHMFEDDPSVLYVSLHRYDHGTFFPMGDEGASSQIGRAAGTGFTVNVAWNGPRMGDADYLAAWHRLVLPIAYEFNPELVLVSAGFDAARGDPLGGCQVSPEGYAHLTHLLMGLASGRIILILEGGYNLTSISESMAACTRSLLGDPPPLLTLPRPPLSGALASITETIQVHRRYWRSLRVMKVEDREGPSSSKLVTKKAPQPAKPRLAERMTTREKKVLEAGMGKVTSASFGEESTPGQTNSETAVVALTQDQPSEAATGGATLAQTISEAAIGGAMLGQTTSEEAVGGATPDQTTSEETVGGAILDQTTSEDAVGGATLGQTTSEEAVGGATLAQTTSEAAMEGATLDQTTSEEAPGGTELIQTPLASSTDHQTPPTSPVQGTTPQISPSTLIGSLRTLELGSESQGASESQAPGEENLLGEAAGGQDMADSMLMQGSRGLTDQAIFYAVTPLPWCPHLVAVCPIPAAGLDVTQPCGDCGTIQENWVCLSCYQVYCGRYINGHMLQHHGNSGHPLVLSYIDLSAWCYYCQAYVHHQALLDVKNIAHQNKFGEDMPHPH
Assay: In vitro histone deacetylase assay: enzymatic HDAC6 electrophoretic mobility shift assay
Format: biochemical
Conditions: full length human recombinant HDAC6, 1 nM enzyme, 2 μM peptide substrate RHKK(Ac)-NH2, 25° C.; read-out: Inhibitory Concentration (IC50) against HDAC6, Activity Range
Protocol: The enzymatic HDAC6 assay was performed using electrophoretic mobility shift assay. Full length human recombinant HDAC6 protein were expressed in baculoviral system and purified by affinity chromatography. The enzymatic reactions were assembled in 384 well plates in a total volume of 25 μL in a reaction buffer composing: 100 mM HEPES, pH7.5, 25 mM KCl, 0.1% bovine serum albumin, 0.01% Triton X-100, 1% DMSO (from compounds) 2 μM of the fluorescently labeled peptide substrate and enzyme. The enzyme was added at a final concentration of 1 nM. The peptide substrate RHKK(Ac)—NH2 was used. The compounds were tested at 12 concentrations spaced by 3× dilution intervals. Negative control samples (0%-inhibition in the absence of inhibitor) and positive control samples (100%-inhibition) were assembled in replicates of four in each assay plate. The reactions were incubated at 25° C. and quenched by the addition of 45 μL of termination buffer (100 mM HEPES, pH 7.5, 0.01% Triton X-100, 0.05% SDS).
The terminated assay plates were analyzed on LabChip® 3000 microfluidic electrophoresis instrument (Perkin Elmer/Caliper Life Sciences). The fluorescence intensity of the electrophoretically separated de-acetylated product and substrate peptide were measured. Activity in each sample was determined as the product to sum ratio (PSR): P/(S+P), where P is the peak height of the product peptide and S is the peak height of the substrate peptide. Percent inhibition (Pinh) was determined using the following equation:
Pinh=(PSR0%−PSRinh)/(PSR0%−PSR100%)*100, where PSRinh is the product sum ratio in the presence of inhibitor, PSR0% is the average product sum ration in the absence of inhibitor and PSR100% is the average product sum ratio in 100%-inhibition control samples. The IC50 values of inhibitors are determined by fitting the %-inhibition curves with 4 parameter dose-response model using XLfit 4 software.

IC50 [nM]	Compound
> 500	O=C(NO)c1ccc2c(c1)OCCCNC2 [N-hydroxy-3,4,5,6-tetrahydro-2H-benzo[b][1,5]oxazocine-9-carboxamide]
≤ 100	CC1(C(=O)N2CCCOc3cc(C(=O)NO)ccc3C2)CCOCC1 [N-hydroxy-5-(4-methyltetrahydro-2H-pyran-4-carbonyl)-3,4,5,6-tetrahydro-2H-benzo[b][1,5]oxazocine-9-carboxamide]
100 to 500	O=C(NO)c1ccc2c(c1)OCCCN(C(=O)C1CCOCC1)C2 [N-hydroxy-5-(tetrahydro-2H-pyran-4-carbonyl)-3,4,5,6-tetrahydro-2H-benzo[b][1,5]oxazocine-9-carboxamide]
